Type in all cases: functional
The test system of one experiment is CCRF-CEM. Description: Cytotoxicity against human CCRF-CEM cells assessed as growth inhibition at 10 uM after 48 hrs by SRB assay. To be noted: read-out: GI.
A further experiment concerns K562. The experiment is described as follows: Cytotoxicity against human K562 cells assessed as growth inhibition at 10 uM after 48 hrs by SRB assay. To be noted: K562, 48 h, read-out: GI. Background: Sulforhodamine B stains cellular protein and so reports cell mass.
Experiment [1] is described as follows: Cytotoxicity against human MOLT4 cells assessed as growth inhibition at 10 uM after 48 hrs by SRB assay. To be noted: MOLT-4, 48 h, read-out: GI.
Experiment [2] can be described thus: Cytotoxicity against human RPMI8226 cells assessed as growth inhibition at 10 uM after 48 hrs by SRB assay. To be noted: RPMI-8226, 48 h, read-out: GI.
The next experiment concerns SR. The experiment is described as follows: Cytotoxicity against human SR cells assessed as growth inhibition at 10 uM after 48 hrs by SRB assay. To be noted: read-out: GI.
Another experiment has as its system A549. Description: Cytotoxicity against human A549 cells assessed as growth inhibition at 10 uM after 48 hrs by SRB assay. The following applies: A549, 48 h, read-out: GI.
The test system of another experiment is NCI-H522. The experiment is described as follows: Cytotoxicity against human NCI-H522 cells assessed as growth inhibition at 10 uM after 48 hrs by SRB assay. The following applies: NCI-H522, 48 h, read-out: GI.
Experiment [3] in a line: Cytotoxicity against human SF295 cells assessed as growth inhibition at 10 uM after 48 hrs by SRB assay. The following applies: SF-295, 48 h, read-out: GI.
The subject of the next experiment is U-251. Description: Cytotoxicity against human U251 cells assessed as growth inhibition at 10 uM after 48 hrs by SRB assay. To be noted: U-251, 48 h, read-out: GI.
Experiment [4] is described as follows: Cytotoxicity against human LOXIMVI cells assessed as growth inhibition at 10 uM after 48 hrs by SRB assay. To be noted: LOX IMVI, read-out: GI.
Experiment [5] can be described thus: Cytotoxicity against human UACC62 cells assessed as growth inhibition at 10 uM after 48 hrs by SRB assay. To be noted: UACC-62, 48 h, read-out: GI.
The nature of experiment [6]: Cytotoxicity against human OVCAR4 cells assessed as growth inhibition at 10 uM after 48 hrs by SRB assay. The following applies: OVCAR-4, 48 h, read-out: GI.
The subject of another experiment is A498. The experiment is described as follows: Cytotoxicity against human A498 cells assessed as growth inhibition at 10 uM after 48 hrs by SRB assay. To be noted: A498, 48 h, read-out: GI.
Another experiment has as its system ACHN. Description: Cytotoxicity against human ACHN cells assessed as growth inhibition at 10 uM after 48 hrs by SRB assay. The following applies: read-out: GI.
A short description of experiment [7]: Cytotoxicity against human Caki1 cells assessed as growth inhibition at 10 uM after 48 hrs by SRB assay. To be noted: CAKI-1, 48 h, read-out: GI.
The subject of a further experiment is SN12C. Description: Cytotoxicity against human SN12C cells assessed as growth inhibition at 10 uM after 48 hrs by SRB assay. To be noted: read-out: GI.
A short description of experiment [8]: Cytotoxicity against human UO31 cells assessed as growth inhibition at 10 uM after 48 hrs by SRB assay. To be noted: UO-31, 48 h, read-out: GI.
Experiment [9] can be described thus: Cytotoxicity against human PC3 cells assessed as growth inhibition at 10 uM after 48 hrs by SRB assay. To be noted: PC-3, 48 h, read-out: GI.
The next experiment concerns MCF7. Description: Cytotoxicity against human MCF7 cells assessed as growth inhibition at 10 uM after 48 hrs by SRB assay. To be noted: MCF7, 48 h, read-out: GI.
The subject of a further experiment is MDA-MB-231. The experiment is described as follows: Cytotoxicity against human MDA-MB-231 cells assessed as growth inhibition at 10 uM after 48 hrs by SRB assay. The following applies: MDA-MB-231, 48 h, read-out: GI.
A further experiment deals with T47D. Description: Cytotoxicity against human T47D cells assessed as growth inhibition at 10 uM after 48 hrs by SRB assay. To be noted: read-out: GI.
Another experiment concerns EKVX. Description: Cytotoxicity against human EKVX cells assessed as growth inhibition at 10 uM after 48 hrs by SRB assay. To be noted: read-out: GI.
A short description of experiment [10]: Cytotoxicity against human HOP92 cells assessed as growth inhibition at 10 uM after 48 hrs by SRB assay. To be noted: HOP-92, 48 h, read-out: GI.
In another experiment the test system is NCI-H23. Description: Cytotoxicity against human NCI-H23 cells assessed as growth inhibition at 10 uM after 48 hrs by SRB assay. The following applies: NCI-H23, 48 h, read-out: GI.
The nature of experiment [11]: Cytotoxicity against human SF268 cells assessed as growth inhibition at 10 uM after 48 hrs by SRB assay. To be noted: SF-268, 48 h, read-out: GI.
Experiment [12] can be described thus: Cytotoxicity against human SNB75 cells assessed as growth inhibition at 10 uM after 48 hrs by SRB assay. To be noted: SNB-75, 48 h, read-out: GI.
For another experiment, the system named is SK-MEL-5. Description: Cytotoxicity against human SK-MEL-5 cells assessed as growth inhibition at 10 uM after 48 hrs by SRB assay. To be noted: SK-MEL-5, 48 h, read-out: GI.
The nature of experiment [13]: Cytotoxicity against human Hs 578T cells assessed as growth inhibition at 10 uM after 48 hrs by SRB assay. To be noted: read-out: GI.
Experiment [14] is described as follows: Cytotoxicity against human HOP62 cells assessed as growth inhibition at 10 uM after 48 hrs by SRB assay. To be noted: HOP-62, 48 h, read-out: GI.
For the next experiment, the system named is NCI-H226. The experiment is described as follows: Cytotoxicity against human NCI-H226 cells assessed as growth inhibition at 10 uM after 48 hrs by SRB assay. The following applies: NCI-H226, 48 h, read-out: GI.
The subject of the next experiment is Malme-3M. The experiment is described as follows: Cytotoxicity against human MALME-3M cells assessed as growth inhibition at 10 uM after 48 hrs by SRB assay. The following applies: read-out: GI.
Experiment [15] is described as follows: Cytotoxicity against human RXF393 cells assessed as growth inhibition at 10 uM after 48 hrs by SRB assay. To be noted: RXF 393, 48 h, read-out: GI.
Experiment [16] is described as follows: Cytotoxicity against human NCI-ADR-RES cells assessed as growth inhibition at 10 uM after 48 hrs by SRB assay. The following applies: read-out: GI.
A short description of experiment [17]: Cytotoxicity against human BT549 cells assessed as growth inhibition at 10 uM after 48 hrs by SRB assay. To be noted: BT-549, 48 h, read-out: GI.

This passage reports inhibition of growth results from ChEMBL document CHEMBL3784933, “Synthesis and antitumor evaluation of trimethoxyanilides based on 4(3H)-quinazolinone scaffolds” (2016).

As to `COc1cc(NC(=O)CCSc2nc3ccccc3c(=O)n2-c2ccccc2)cc(OC)c1OC`, the inhibition of growth at 10 µM in the experiment on CCRF-CEM is 19%; in the experiment on K562, 31%; in [1], 15%; in experiment [2], 36%; in the experiment with SR it was 17%; in the experiment on A549 it was 15%. For the same compound, the inhibition of growth at 10 µM in the experiment with NCI-H522 turned out to be 49%; in experiment [3] it was 13%; in the experiment with U-251, 10%; in [4] it was 10%; in experiment [5], 17%; in [6] it was 24%. The inhibition of growth at 10 µM in the experiment with A498 stood at 46%; in the experiment on ACHN, 18%; in experiment [7] it was 22%; in the experiment with SN12C it was 18%; in experiment [8] it was 44%; in experiment [9] it was 39%. Moreover, the values for the inhibition of growth at 10 µM in the experiment with MCF7, with MDA-MB-231 and in the experiment with T47D were 16%, 41% and 23%, respectively.
`COc1cc(NC(=O)CSc2nc3ccccc3c(=O)n2-c2ccc(F)cc2)cc(OC)c1OC`: the inhibition of growth at 10 µM came out at 14% in the experiment on K562; 18% in experiment [1]; 14% in [2]; 13% in the experiment with EKVX; 43% in [10]; 10% in the experiment on NCI-H23. The inhibition of growth at 10 µM in the experiment on NCI-H522 was found to be 19%; in experiment [11] it was 10%; in experiment [12], 10%; in [4], 10%; in the experiment on SK-MEL-5, 11%; in [5], 19%. Also, the inhibition of growth at 10 µM in the experiment with A498 is 72%; in [7], 12%; in experiment [8], 42%; in the experiment on MDA-MB-231 it was 24%; in experiment [13], 10%; in the experiment on T47D, 23%.
For `COc1cc(NC(=O)CSc2nc3ccccc3c(=O)n2-c2ccccc2)cc(OC)c1OC`, the inhibition of growth at 10 µM in the experiment on CCRF-CEM is 22%; in the experiment with EKVX, 24%; in [14], 12%; in the experiment on NCI-H226, 23%; in the experiment with NCI-H522, 11%; in experiment [12], 27%. Also, the inhibition of growth at 10 µM worked out at 11% with Malme-3M; 16% in the experiment with SK-MEL-5; 19% in [5]; 12% in experiment [6]; 54% in the experiment with A498; 11% with ACHN. Moreover, the inhibition of growth at 10 µM in experiment [7] is 20%; in [15], 12%; in experiment [8], 48%; in experiment [9], 15%; in the experiment with MDA-MB-231, 23%; in [13], 14%. Besides, the inhibition of growth at 10 µM in the experiment on T47D is 18%.
For the compound `COc1cc(NC(=O)CSc2nc3ccc(Cl)cc3c(=O)n2-c2ccccc2)cc(OC)c1OC`, the inhibition of growth at 10 µM with CCRF-CEM is 30%; with A549, 12%; with EKVX, 24%; in [14] it was 15%; with NCI-H522, 16%; in [11] it was 10%. Also, the inhibition of growth at 10 µM in experiment [3] is 13%; in experiment [12], 29%; in experiment [4], 10%; with Malme-3M it was 12%; with SK-MEL-5, 17%; in experiment [5], 25%. Besides, the inhibition of growth at 10 µM in experiment [6] turned out to be 15%; in experiment [16], 10%; in the experiment on A498 it was 54%; in experiment [7], 17%; in [8] it was 50%; in experiment [9] it was 20%. Further, the inhibition of growth at 10 µM with MDA-MB-231 turned out to be 17%; in experiment [13], 19%; in experiment [17] it was 22%; in the experiment on T47D, 15%.
As to `COc1cc2nc(SCCC(=O)Nc3cc(OC)c(OC)c(OC)c3)n(-c3ccc(F)cc3)c(=O)c2cc1OC`, the inhibition of growth at 10 µM in the experiment with K562 is 11%; in [14] it was 11%; in experiment [10], 13%; with U-251, 12%; with A498, 22%.
Take `COc1cc2nc(SCCC(=O)Nc3cc(OC)c(OC)c(OC)c3)n(-c3ccccc3)c(=O)c2cc1OC`: the inhibition of growth at 10 µM in experiment [2] is 25%; with SR, 13%; in the experiment with A549, 14%; in the experiment with NCI-H522, 15%; in [12], 39%; in experiment [7], 12%. Besides, the inhibition of growth at 10 µM turned out to be 25% in experiment [8], 18% in experiment [9], 14% in the experiment with MDA-MB-231 and 14% in the experiment on T47D.
For the compound `COc1cc2nc(SCC(=O)Nc3cc(OC)c(OC)c(OC)c3)n(-c3ccc(F)cc3)c(=O)c2cc1OC`, the inhibition of growth at 10 µM in the experiment on CCRF-CEM was determined as 15%; in the experiment on NCI-H522 it was 15%; in experiment [4], 14%; in [5] it was 18%; in [8], 38%; in the experiment with T47D, 20%.
Regarding `COc1cc(NC(=O)CCSc2nc3ccc(Cl)cc3c(=O)n2-c2ccccc2)cc(OC)c1OC`, the inhibition of growth at 10 µM in the experiment with SR was determined as 18%; in experiment [12] it was 21%; in [6], 15%; in the experiment on A498, 22%; in the experiment with MDA-MB-231 it was 10%.
